Here are results for 26 compounds from ChEMBL document CHEMBL4813948, “Cytotoxic and Anti-Inflammatory Sesquiterpenes from the Whole Plants of Centipeda minima” (J Nat Prod, 2021).

Data set [1] deals with HCT-116. Description: Cytotoxicity against human HCT-116 cells assessed as reduction in cell viability incubated for 48 hrs by MTT assay. The data set is classed as functional, cell-based. The settings on record: HCT-116, 48 h.
Data set [2] relates to HepG2. The data set is described as follows: Cytotoxicity against human HepG2 cells assessed as reduction in cell viability incubated for 48 hrs by MTT assay. The data set is classed as functional, cell-based. The settings on record: HepG2, 48 h.
Data set [3] relates to HeLa. The data set is described as follows: Cytotoxicity against human HeLa cells assessed as reduction in cell viability incubated for 48 hrs by MTT assay. The data set is classed as functional, cell-based.
Data set [4] relates to RAW264.7. Description: Anti-inflammatory activity in mouse RAW264.7 cells assessed as inhibition of LPS-induced NO production incubated for 24 hrs by Griess reagent based assay. The data set is classed as functional, cell-based. The note with it: RAW264.7, 24 h.
The test system of data set [5] is RAW264.7. Description: Cytotoxicity against mouse RAW264.7 cells after 24 hrs by MTT assay. The data set is classed as cell-based. The note with it: raw264.7, 24 h.

As to `CCC(C)C(=O)O[C@H]1[C@@H]2[C@H](C)C(=O)O[C@@H]2C[C@@H](C)[C@@H]2C=CC(=O)[C@]21C` (stereo not given in full), the IC50 in data set [1] is 7.3 µM; in data set [2], greater than 10 µM; in data set [3], 2.4 µM; in data set [4], 2400 nM.
On the same counts, the results for `C=C1C(=O)O[C@@H]2C[C@@H](C)[C@@H]3C=CC(=O)[C@@]3(C)[C@@H](OC(=O)CC(C)C)[C@H]12` are 3.3 µM, 2.6 µM, 2 µM and 200 nM.
Regarding `C=C1C(=O)O[C@H]2C[C@@H](C)[C@@H]3[C@@H](OC(=O)C(C)C)C[C@@H](OC(=O)C=C(C)C)[C@@]3(C)C[C@H]12`, the figures for the IC50 in data set [1], in data set [2] and in data set [3] were 8.1 µM, 6.5 µM and greater than 10 µM, respectively.
For `C=C1C(=O)O[C@H]2C[C@@H](C)[C@@H]3[C@@H](OC(=O)CC(C)C)C[C@@H](OC(=O)CC(C)C)[C@@]3(C)C[C@H]12`, the IC50 in data set [1] was 9.9 µM; in data set [2], greater than 10 µM; in data set [3], greater than 10 µM; in data set [4] it was 100 nM.
Consider `C=C1C(=O)O[C@H]2C[C@@H](C)[C@@H]3[C@@H](OC(=O)/C(C)=C\C)C[C@@H](OC(=O)CC(C)C)[C@@]3(C)C[C@H]12`, for which the 50% inhibitory concentration (IC50) in data set [1] is 5.2 µM; in data set [2] it was 2.9 µM; in data set [3] it was 9.4 µM; in data set [4], greater than 10000 nM.
Turning to `C/C=C(\C)C(=O)O[C@H]1[C@@H]2[C@H](C)C(=O)O[C@@H]2C[C@@H](C)[C@@H]2C=CC(=O)[C@]21C`, the IC50 is greater than 10 µM in data set [1], greater than 10 µM in data set [2], greater than 10 µM in data set [3] and greater than 10000 nM in data set [4].
For `C=C(C)C(=O)O[C@@H]1C[C@H](OC(=O)C(C)C)[C@H]2[C@H](C)C[C@@H]3OC(=O)C(=C)[C@H]3C[C@@]21C`, the IC50 in data set [1] is greater than 10 µM; in data set [2] it was greater than 10 µM; in data set [3], greater than 10 µM; in data set [4] it was 3900 nM.
In the case of `C=C1C(=O)O[C@@H]2C[C@@H](C)[C@@H]3C=CC(=O)[C@@]3(C)[C@@H](OC(=O)C=C(C)C)[C@H]12`, the IC50 in data set [1] is 0.8 µM; in data set [2], 1.5 µM; in data set [3] it was 2.6 µM.
In the same order, the values of `C=C(C)C(=O)O[C@H]1[C@@H]2[C@H](C)C(=O)O[C@@H]2C[C@@H](C)[C@@H]2CCC(=O)[C@]21C` are greater than 10 µM, greater than 10 µM and greater than 10 µM.
On the same counts, the results for `C=C1C(=O)O[C@@H]2C[C@@H](C)[C@@H]3C=CC(=O)[C@@]3(C)[C@@H](OC(=O)C(C)C)[C@H]12` [HELENALINISOBUTYRATE] are 0.4 µM, 1.8 µM and 1.4 µM.
Turning to `C=C1C(=O)O[C@H]2C[C@@H](C)[C@@H]3[C@@H](OC(=O)C(C)C)C[C@@H](OC(=O)C(C)C)[C@@]3(C)C[C@H]12`, the results for the IC50 in data set [1], in data set [2] and in data set [3] were greater than 10 µM, 6.5 µM and greater than 10 µM, respectively.
Take `C/C=C(/C)C(=O)O[C@H]1[C@@H]2[C@H](C)C(=O)O[C@@H]2C[C@@H](C)[C@@H]2CCC(=O)[C@]21C`: the IC50 in data set [1] is greater than 10 µM; in data set [2], greater than 10 µM; in data set [3], greater than 10 µM; in data set [4] it was greater than 10000 nM.
Consider `C=C1C(=O)O[C@@H]2C[C@@H](C)[C@@H]3[C@@H](OC)CC(=O)[C@@]3(C)[C@@H](OC(=O)/C(C)=C\C)[C@H]12`, for which the IC50 in data set [1], in data set [2] and in data set [3] was greater than 10 µM each time.
For the compound `C=C1C(=O)O[C@H]2C[C@@H](C)[C@@H]3[C@@H](OC(=O)C=C(C)C)C[C@@H](OC(=O)/C(C)=C\C)[C@@]3(C)C[C@H]12`, the figures for the IC50 in data set [1], in data set [2] and in data set [3] were 9.4 µM, 3.5 µM and greater than 10 µM, respectively.
In the same order, the values of `C=C1C(=O)O[C@H]2C[C@@H](C)[C@@H]3[C@@H](OC(=O)C(C)C)C[C@@H](OC(=O)/C(C)=C/C)[C@@]3(C)C[C@H]12` are greater than 10 µM, 8.7 µM and greater than 10 µM.
In the same order, the values of `CC(C)=CC(=O)O[C@H]1[C@@H]2[C@H](C)C(=O)O[C@@H]2C[C@@H](C)[C@@H]2CCC(=O)[C@]21C` are greater than 10 µM, greater than 10 µM and greater than 10 µM.
On the same counts, the results for `C=C1C(=O)O[C@H]2C[C@@H](C)[C@@H]3[C@@H](OC(=O)/C(C)=C/C)C[C@@H](OC(=O)/C(C)=C\C)[C@@]3(C)C[C@H]12` are 6.6 µM, 4.1 µM and 7.8 µM.
For `C=C(C)C(=O)O[C@@H]1[C@@H]2[C@H](C[C@H](C)C3=CCC(=O)[C@@]31C)OC(=O)[C@@H]2C`, the IC50 in data set [1], in data set [2] and in data set [3] was greater than 10 µM throughout.
Turning to `C=C1C(=O)O[C@@H]2C[C@@H](C)[C@@H]3C=CC(=O)[C@@]3(C)[C@@H](OC(=O)/C(C)=C\C)[C@H]12`, the 50% inhibitory concentration (IC50) turned out to be 2.9 µM in data set [1], 1.1 µM in data set [2] and 0.8 µM in data set [3].
For the compound `C/C=C(/C)C(=O)O[C@H]1[C@@H]2[C@H](C)C(=O)O[C@@H]2C[C@@H](C)[C@@H]2C=CC(=O)[C@]21C` [BREVILIN A], the IC50 in data set [1] is greater than 10 µM; in data set [2], greater than 10 µM; in data set [3] it was 9.2 µM. Besides, the Activity entry in data set [5] is reported as “Toxic”.
As to `CC(C)=CC(=O)O[C@H]1[C@@H]2[C@H](C)C(=O)O[C@@H]2C[C@@H](C)C2=CCC(=O)[C@]21C`, the IC50 in data set [1], in data set [2] and in data set [3] was greater than 10 µM each time.
As to `C=C1C(=O)O[C@@H]2C[C@@H](C)[C@@H]3C(OC(=O)/C(C)=C\C)=C[C@@]4(C)O[C@@]34C[C@H]12`, the IC50 in data set [1], in data set [2] and in data set [3] was greater than 10 µM each time.
For the compound `CC(C)CC(=O)O[C@H]1[C@@H]2[C@H](C)C(=O)O[C@@H]2C[C@@H](C)[C@@H]2C=CC(=O)[C@]21C`, the IC50 in data set [1] was 7.2 µM; in data set [2] it was greater than 10 µM; in data set [3], 5.5 µM; in data set [4], 1700 nM.
As to `C/C=C(/C)C(=O)O[C@H]1[C@@H]2[C@H](C)C(=O)O[C@@H]2C[C@@H](C)[C@@H]2[C@H](OC)CC(=O)[C@]21C`, the concentration for half-maximal inhibition (IC50) in data set [1] is greater than 10 µM; in data set [2], greater than 10 µM; in data set [3], greater than 10 µM; in data set [4], greater than 10000 nM.
`C/C=C(/C)C(=O)O[C@H]1[C@@H]2[C@H](C)C(=O)O[C@@H]2C[C@@H](C)[C@@H]2[C@@H](OCC)CC(=O)[C@]21C`: the IC50 in data set [1] was greater than 10 µM; in data set [2], greater than 10 µM; in data set [3] it was greater than 10 µM; in data set [4], greater than 10000 nM.
For the compound `C=C1C(=O)O[C@H]2C[C@@H](C)[C@@H]3[C@@H](OC(=O)C(C)C)C[C@@H](OC(=O)CC(C)C)[C@@]3(C)C[C@H]12`, the IC50 was greater than 10 µM in data set [1], greater than 10 µM in data set [2], greater than 10 µM in data set [3] and 200 nM in data set [4].
